Source: US6770596B1, “Fused tricyclic compounds, process for their preparation, and herbicidal compositions containing them” (Ishihara Sangyo Kaisha Ltd., priority 2002, dated 2004)

Tests used:
Assay type in all cases: in vivo
[1] = system: ivyleaf morningglory (Ipomoea hederacea, IPH); assay: Pre-emerge test, ivyleaf morningglory; conditions: 250 g ai/ha, 14 days after application, rating scale 0-100 (0 no damage, 100 complete death)
How it was run: (§1)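 Seeds planted 1 day pre-application in sandy loam soil mix; acetone solutions sprayed at 8 to 1000 g ai/ha (187 l/ha, flat fan nozzle, track sprayer). 14 d later, visual damage scored on a 0–100 scale.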

[2] = system: large crabgrass (Digitaria sanguinalis, DIS); assay: Pre-emerge test, large crabgrass; conditions: 250 g ai/ha, 14 days after application, rating scale 0-100 (0 no damage, 100 complete death)
How it was run: as §1

[3] = system: barnyardgrass (Echinachloa crus-galli, ECC); assay: Post-emerge test, barnyardgrass; conditions: 250 g ai/ha, 14 days after application, rating scale 0-100 (0 no damage, 100 complete death)
How it was run: (§2)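 A greenhouse foliar screen: the compound was applied over the top of 2-3 leaf plants by a flat-fan track sprayer at 8 to 1000 g ai/ha. It was delivered in acetone at 187 l/ha, with 0.25% v/v non-ionic surfactant added for leaf wetting. Injury was judged 14 days on, from 0 (none) to 100 (complete kill).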

[4] = system: common ragweed (Ambrosia artemisiifolia L., AML); assay: Pre-emerge test, common ragweed; conditions: 250 g ai/ha, 14 days after application, rating scale 0-100 (0 no damage, 100 complete death)
How it was run: as §1

[5] = system: redroot pigweed (Amaranthus retroflexus, AMR); assay: Post-emerge test, redroot pigweed; conditions: 250 g ai/ha, 14 days after application, rating scale 0-100 (0 no damage, 100 complete death)
How it was run: as §2

[6] = system: lambsquarters (Chenopodium album, CHA); assay: Pre-emerge test, lambsquarters; conditions: 250 g ai/ha, 14 days after application, rating scale 0-100 (0 no damage, 100 complete death)
How it was run: as §1

[7] = system: velvetleaf (Abutilon theophrasti, ABT); assay: Post-emerge test, velvetleaf; conditions: 250 g ai/ha, 14 days after application, rating scale 0-100 (0 no damage, 100 complete death)
How it was run: as §2

[8] = system: johnsongrass (Sorghum halepense, SOH); assay: Post-emerge test, johnsongrass; conditions: 250 g ai/ha, 14 days after application, rating scale 0-100 (0 no damage, 100 complete death)
How it was run: as §2

[9] = system: field corn (Zea mays L., var. Dekalb 535, CORN); assay: Pre-emerge test, crop damage field corn
How it was run: (§3)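 Pots (10 cm, sandy loam mix) were seeded one day ahead of spraying. Test materials, dissolved in acetone, went on at 8–1000 g ai/ha in a 187 l/ha spray volume. Damage was scored 14 days later from 0 (none) to 100 (total kill).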

[10] = system: barnyardgrass (Echinachloa crus-galli, ECC); assay: Pre-emerge test, barnyardgrass; conditions: 250 g ai/ha, 14 days after application, rating scale 0-100 (0 no damage, 100 complete death)
How it was run: as §1

[11] = system: cocklebur (Xanthium strumariunt, XAS); assay: Post-emerge test, cocklebur; conditions: 250 g ai/ha, 14 days after application, rating scale 0-100 (0 no damage, 100 complete death)
How it was run: as §2

[12] = system: large crabgrass (Digitaria sanguinalis, DIS); assay: Post-emerge test, large crabgrass; conditions: 250 g ai/ha, 14 days after application, rating scale 0-100 (0 no damage, 100 complete death)
How it was run: as §2

[13] = system: redroot pigweed (Amaranthus retroflexus, AMR); assay: Pre-emerge test, redroot pigweed; conditions: 250 g ai/ha, 14 days after application, rating scale 0-100 (0 no damage, 100 complete death)
How it was run: as §1

[14] = system: common ragweed (Ambrosia artemisiifolia L., AML); assay: Post-emerge test, common ragweed; conditions: 250 g ai/ha, 14 days after application, rating scale 0-100 (0 no damage, 100 complete death)
How it was run: as §2

[15] = system: lambsquarters (Chenopodium album, CHA); assay: Post-emerge test, lambsquarters; conditions: 250 g ai/ha, 14 days after application, rating scale 0-100 (0 no damage, 100 complete death)
How it was run: as §2

[16] = system: soybean (Glycine max L., var. Pella 86, SOY); assay: Pre-emerge test, crop damage soybean
How it was run: as §3

[17] = system: ivyleaf morningglory (Ipomoea hederacea, IPH); assay: Post-emerge test, ivyleaf morningglory; conditions: 250 g ai/ha, 14 days after application, rating scale 0-100 (0 no damage, 100 complete death)
How it was run: as §2

[18] = system: cocklebur (Xanthium strumariunt, XAS); assay: Pre-emerge test, cocklebur; conditions: 250 g ai/ha, 14 days after application, rating scale 0-100 (0 no damage, 100 complete death)
How it was run: as §1

[19] = system: johnsongrass (Sorghum halepense, SOH); assay: Pre-emerge test, johnsongrass; conditions: 250 g ai/ha, 14 days after application, rating scale 0-100 (0 no damage, 100 complete death)
How it was run: as §1

[20] = system: wheat (Triticum aestivum); assay: Post-emerge test, crop damage wheat
How it was run: as §2

[21] = system: sicklepod (Cassia obtusifolia, CAO); assay: Post-emerge test, sicklepod; conditions: 250 g ai/ha, 14 days after application, rating scale 0-100 (0 no damage, 100 complete death)
How it was run: as §2

[22] = system: green foxtail (Setaria viridis, SEV); assay: Post-emerge test, green foxtail; conditions: 250 g ai/ha, 14 days after application, rating scale 0-100 (0 no damage, 100 complete death)
How it was run: as §2

[23] = system: field corn (Zea mays L., var. Dekalb 535, CORN); assay: Post-emerge test, crop damage field corn
How it was run: as §2

[24] = system: velvetleaf (Abutilon theophrasti, ABT); assay: Pre-emerge test, velvetleaf; conditions: 250 g ai/ha, 14 days after application, rating scale 0-100 (0 no damage, 100 complete death)
How it was run: as §1

[25] = system: soybean (Glycine max L., var. Pella 86, SOY); assay: Post-emerge test, crop damage soybean
How it was run: as §2

[26] = system: wheat (Triticum aestivum); assay: Pre-emerge test, crop damage wheat
How it was run: as §3

[27] = system: upland rice (Oryza sp., var.Tebonnet, RICE); assay: Pre-emerge test, crop damage upland rice
How it was run: as §3

[28] = system: sicklepod (Cassia obtusifolia, CAO); assay: Pre-emerge test, sicklepod; conditions: 250 g ai/ha, 14 days after application, rating scale 0-100 (0 no damage, 100 complete death)
How it was run: as §1

[29] = system: upland rice (Oryza sp., var.Tebonnet, RICE); assay: Post-emerge test, crop damage upland rice
How it was run: as §2

[30] = system: green foxtail (Setaria viridis, SEV); assay: Pre-emerge test, green foxtail; conditions: 250 g ai/ha, 14 days after application, rating scale 0-100 (0 no damage, 100 complete death)
How it was run: as §1

[31] = var. Dekalb 535, Zea mays (field corn), in vivo, 14 days
[32] = var. Pella 86, Glycine max (soybean), in vivo, 14 days
[33] = Triticum aestivum (wheat), in vivo, 14 days
[34] = var. Tebonnet, Oryza sp. (upland rice), in vivo, 14 days
[35] = pre-emerge, 250 g ai/ha, 14 days after application, rating scale 0-100 (0 no damage, 100 complete death)
[36] = post-emerge, 250 g ai/ha, 14 days after application, rating scale 0-100 (0 no damage, 100 complete death)

Compound	Pre-emerge Herbicidal Activity IPH (phytotoxicity rating) [1]	Pre-emerge Herbicidal Activity DIS (phytotoxicity rating) [2]	Post-emerge Herbicidal Activity ECC (phytotoxicity rating) [3]	Pre-emerge Herbicidal Activity AML (phytotoxicity rating) [4]	Post-emerge Herbicidal Activity AMR (phytotoxicity rating) [5]	Pre-emerge Herbicidal Activity CHA (phytotoxicity rating) [6]	Post-emerge Herbicidal Activity ABT (phytotoxicity rating) [7]	Post-emerge Herbicidal Activity SOH (phytotoxicity rating) [8]	Pre-emerge Herbicidal Activity ECC (phytotoxicity rating) [10]	Post-emerge Herbicidal Activity XAS (phytotoxicity rating) [11]	Post-emerge Herbicidal Activity DIS (phytotoxicity rating) [12]	Pre-emerge Herbicidal Activity AMR (phytotoxicity rating) [13]	Post-emerge Herbicidal Activity AML (phytotoxicity rating) [14]	Post-emerge Herbicidal Activity CHA (phytotoxicity rating) [15]	Post-emerge Herbicidal Activity IPH (phytotoxicity rating) [17]	Pre-emerge Herbicidal Activity XAS (phytotoxicity rating) [18]	Pre-emerge Herbicidal Activity SOH (phytotoxicity rating) [19]	Post-emerge Herbicidal Activity CAO (phytotoxicity rating) [21]	Post-emerge Herbicidal Activity SEV (phytotoxicity rating) [22]	Pre-emerge Herbicidal Activity ABT (phytotoxicity rating) [24]	further results
CC1C(=O)Nc2c(-c3nn(C)c(OC(F)F)c3Cl)c(F)cc3c2N1C(=O)CO3 (stereo not drawn) [1-26, 8-[4-Chloro-5-(difluoromethoxy)-1-methyl-1H-pyrazole-3-yl)-9-fluoro-5-methyl-5H-pyrazino[1,2,3-de]-1,4-benzoxazine-3,6(2H, 7H)-dione]	100	100	99	100	100	100	100	80	100	100	40	100	99	100	100	99	100	100	100	100	Pre-emerge crop damage CORN (phytotoxicity rating) [9, 31]: 100; Pre-emerge crop damage SOY (phytotoxicity rating) [16, 32]: 98; Post-emerge crop damage WHEAT (phytotoxicity rating) [20, 33]: 60; Post-emerge crop damage CORN (phytotoxicity rating) [23, 31]: 40; Post-emerge crop damage SOY (phytotoxicity rating) [25, 32]: 100; Pre-emerge crop damage WHEAT (phytotoxicity rating) [26, 33]: 98; Pre-emerge crop damage RICE (phytotoxicity rating) [27, 34]: 100; Pre-emerge Herbicidal Activity CAO (phytotoxicity rating) [28]: 99; Post-emerge crop damage RICE (phytotoxicity rating) [29, 34]: 90; Pre-emerge Herbicidal Activity SEV (phytotoxicity rating) [30]: 100
O=C1CN2C(=O)COc3cc(F)c(-n4nnn(CCCF)c4=O)c(c32)N1 [1-76]	25	25	0	55	0	98	0	0	35	0	0	65	0	0	0	60	35	0	0	55	Pre-emerge crop damage CORN (phytotoxicity rating) [9, 35]: 5; Pre-emerge crop damage SOY (phytotoxicity rating) [16, 35]: 0; Post-emerge crop damage WHEAT (phytotoxicity rating) [20, 36]: 0; Post-emerge crop damage CORN (phytotoxicity rating) [23, 36]: 0; Post-emerge crop damage SOY (phytotoxicity rating) [25, 36]: 0; Pre-emerge crop damage WHEAT (phytotoxicity rating) [26, 35]: 0; Pre-emerge crop damage RICE (phytotoxicity rating) [27, 35]: 10; Pre-emerge Herbicidal Activity CAO (phytotoxicity rating) [28]: 45; Post-emerge crop damage RICE (phytotoxicity rating) [29, 36]: 0; Pre-emerge Herbicidal Activity SEV (phytotoxicity rating) [30]: 0
Cn1nc(-c2c(F)cc3c4c2NC(=O)CN4C(=O)C(C)(C)O3)c(Cl)c1OC(F)F [1-59]	85	99	99	100	100	100	100	65	99	100	99	100	80	100	100	60	100	70	99	100	Pre-emerge crop damage CORN (phytotoxicity rating) [9, 35]: 40; Pre-emerge crop damage SOY (phytotoxicity rating) [16, 35]: 15; Post-emerge crop damage WHEAT (phytotoxicity rating) [20, 36]: 35; Post-emerge crop damage CORN (phytotoxicity rating) [23, 36]: 10; Post-emerge crop damage SOY (phytotoxicity rating) [25, 36]: 45; Pre-emerge crop damage WHEAT (phytotoxicity rating) [26, 35]: 45; Pre-emerge crop damage RICE (phytotoxicity rating) [27, 35]: 50; Pre-emerge Herbicidal Activity CAO (phytotoxicity rating) [28]: 99; Post-emerge crop damage RICE (phytotoxicity rating) [29, 36]: 55; Pre-emerge Herbicidal Activity SEV (phytotoxicity rating) [30]: 100
CC1C(=O)Nc2c3c(cc(F)c2-n2c(=O)cc(C(F)(F)F)n(C)c2=O)OCC(=O)N31 (stereo not drawn) [1-2]	100	100	60	100	90	100	100	20	100	75	0	100	65	80	90	99	100	0	60	100	Pre-emerge crop damage CORN (phytotoxicity rating) [9, 35]: 100; Pre-emerge crop damage SOY (phytotoxicity rating) [16, 35]: 99; Post-emerge crop damage WHEAT (phytotoxicity rating) [20, 36]: 25; Post-emerge crop damage CORN (phytotoxicity rating) [23, 36]: 10; Post-emerge crop damage SOY (phytotoxicity rating) [25, 36]: 50; Pre-emerge crop damage WHEAT (phytotoxicity rating) [26, 35]: 100; Pre-emerge crop damage RICE (phytotoxicity rating) [27, 35]: 100; Pre-emerge Herbicidal Activity CAO (phytotoxicity rating) [28]: 99; Post-emerge crop damage RICE (phytotoxicity rating) [29, 36]: 70; Pre-emerge Herbicidal Activity SEV (phytotoxicity rating) [30]: 100
